Results on 10 compounds are retold here after ChEMBL document CHEMBL1201862, “PubChem BioAssay data set” (2004).

Some test systems named below: SK-OV-3; EKVX; HOP-92; UACC-62; MDA-MB-435; NCI-H23; Malme-3M; HCT-15; CAKI-1; HL-60; PC-3; SN12C; SF-268; U-251; ACHN; SNB-19; NCI-H522; OVCAR-8; SNB-75; COLO 205.
Holding throughout (test): DTP human tumour cell line panel, 48 h

Molecules are shown by their SMILES.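 Results reflect a 48-hour exposure of cells in 96-well plates to compound at five concentrations. Abbreviation: GI50, concentration required for 50% inhibition of growth.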 Activity calls are given as the source filed them. Cut-off read from the data, not from the text of the source: active = GI50 up to about 1.1 µM and inactive = higher. Some results are limits rather than exact numbers.

In general, GI50 refers to the concentration that inhibits growth by half. For `Cc1cccc(C)c1NC(=O)/C(Cc1nc2ccc([N+](=O)[O-])cc2nc1O)=N\NC(N)=O`, the GI50 is > 100 µM (inactive) in the experiment on SK-OV-3; 64.6 µM (inactive) with EKVX; 57.8 µM (inactive) in the experiment with HOP-92; 80.9 µM (inactive) with UACC-62; 98.2 µM (inactive) in the experiment with MDA-MB-435; > 100 µM (inactive) with NCI-H23. For the same compound, the GI50 with Malme-3M is > 100 µM (inactive); in the experiment on HCT-15 it was greater than 100 µM; in the experiment with CAKI-1 it was > 100 µM (inactive); with HL-60, 32.5 µM (inactive); in the experiment with PC-3 it was 66.5 µM (inactive); in the experiment with SN12C, > 100 µM (inactive). Also, the GI50 in the experiment with SF-268 is > 100 µM (inactive); with U-251 it was > 100 µM (inactive); with ACHN it was 94 µM (inactive); with SNB-19, > 100 µM (inactive); in the experiment on NCI-H522 it was 31.6 µM (inactive); with OVCAR-8 it was > 100 µM (inactive). Besides, the results for the GI50 in the experiment on SNB-75 and in the experiment with COLO 205 were > 100 µM (inactive) and 38.9 µM (inactive), respectively.
`O=C(/C=C/NC(=O)OCc1ccccc1)OCc1ccccc1`: the GI50 in the experiment on SK-OV-3 is 32.4 µM (inactive); in the experiment with EKVX it was > 100 µM (inactive); in the experiment on HOP-92 it was 41.6 µM (inactive); in the experiment with UACC-62, > 100 µM (inactive); in the experiment on MDA-MB-435, > 100 µM (inactive); in the experiment with NCI-H23 it was > 100 µM (inactive). The GI50 is > 100 µM (inactive) in the experiment on Malme-3M; greater than 100 µM with HCT-15; > 100 µM (inactive) in the experiment with CAKI-1; > 100 µM (inactive) in the experiment with HL-60; > 100 µM (inactive) in the experiment on PC-3; > 100 µM (inactive) in the experiment on SN12C. Also, the GI50 in the experiment on SF-268, in the experiment with U-251, in the experiment on ACHN, in the experiment with SNB-19, in the experiment on NCI-H522 and in the experiment on OVCAR-8 was > 100 µM (inactive) in each case. The results for the GI50 in the experiment on SNB-75 and with COLO 205 were 32.7 µM (inactive) and > 100 µM (inactive), respectively.
Consider `COc1cc(/C=C2\C[C@H]3[C@@H]4CC=C5C[C@@H](O)CC[C@]5(C)[C@H]4CC[C@]3(C)[C@H]2O)cc(OC)c1OC`, for which the GI50 was 25.5 µM (inactive) in the experiment with SK-OV-3; 34 µM (inactive) in the experiment with EKVX; 12.7 µM (inactive) in the experiment with HOP-92; 10.3 µM (inactive) with UACC-62; 20 µM (inactive) in the experiment on MDA-MB-435; 10.3 µM (inactive) with NCI-H23. Moreover, the GI50 was 33.1 µM (inactive) with Malme-3M; 7.05 µM in the experiment on HCT-15; 20.2 µM (inactive) in the experiment on CAKI-1; 4.91 µM (inactive) in the experiment on HL-60; 16.6 µM (inactive) with PC-3; 38.3 µM (inactive) in the experiment with SN12C. Also, the GI50 is 54.8 µM (inactive) in the experiment with SF-268; 11 µM (inactive) with U-251; 6.27 µM (inactive) in the experiment on ACHN; 50.1 µM (inactive) with SNB-19; 19.1 µM (inactive) in the experiment on NCI-H522; 19 µM (inactive) with OVCAR-8. Also, the GI50 in the experiment on SNB-75 was 9.06 µM (inactive); in the experiment on COLO 205, 7.31 µM (inactive).
For the compound `Cc1noc(/N=C2\C=C(O)C(=O)c3ccccc32)c1C`, the GI50 with SK-OV-3 was 8.3 µM (inactive); in the experiment on EKVX, 37.8 µM (inactive); in the experiment on HOP-92, 18.8 µM (inactive); with UACC-62, 2.14 µM (inactive); in the experiment with MDA-MB-435, 0.126 µM (active); in the experiment with NCI-H23, 3.47 µM (inactive). The GI50 in the experiment with Malme-3M was 2.55 µM (inactive); in the experiment on HCT-15, 11.6 µM; with CAKI-1, 5 µM (inactive); in the experiment on HL-60 it was 0.516 µM (active); in the experiment with PC-3, 16.4 µM (inactive); in the experiment on SN12C it was 0.918 µM (active). Also, the GI50 is 16.9 µM (inactive) in the experiment with SF-268; 1.03 µM (active) with U-251; 13 µM (inactive) in the experiment with ACHN; 3.91 µM (inactive) in the experiment on SNB-19; 0.274 µM (active) in the experiment on NCI-H522; 7.38 µM (inactive) with OVCAR-8. In addition, the GI50 was 3.5 µM (inactive) with SNB-75 and 31.5 µM (inactive) in the experiment with COLO 205.
`Nc1ccc(S(=O)(=O)c2ccc(NC(=O)c3cccnc3)cc2)cc1`: the GI50 is > 100 µM (inactive) in the experiment with SK-OV-3; 64.9 µM (inactive) in the experiment with EKVX; > 100 µM (inactive) in the experiment with HOP-92; > 100 µM (inactive) in the experiment with UACC-62; > 100 µM (inactive) in the experiment on MDA-MB-435; > 100 µM (inactive) with NCI-H23. The GI50 is > 100 µM (inactive) in the experiment with Malme-3M; greater than 100 µM in the experiment on HCT-15; > 100 µM (inactive) in the experiment with CAKI-1; 45.1 µM (inactive) in the experiment with HL-60; 75 µM (inactive) with PC-3; > 100 µM (inactive) in the experiment on SN12C. Further, the GI50 in the experiment on SF-268 was > 100 µM (inactive); in the experiment with U-251, > 100 µM (inactive); in the experiment on ACHN, > 100 µM (inactive); in the experiment on SNB-19, > 100 µM (inactive); in the experiment with NCI-H522 it was 53.2 µM (inactive); with OVCAR-8, > 100 µM (inactive). The GI50 with SNB-75 is 30.8 µM (inactive); in the experiment with COLO 205, > 100 µM (inactive).
Consider `CC1(C)N=c2c(ncn2Cc2ccccc2)=C(C(N)=O)N1`, for which the GI50 in the experiment with SK-OV-3, in the experiment on EKVX, with HOP-92, with UACC-62, with MDA-MB-435 and in the experiment on NCI-H23 was > 100 µM (inactive) each time. Further, the GI50 was > 100 µM (inactive) with Malme-3M; greater than 100 µM in the experiment with HCT-15; > 100 µM (inactive) in the experiment with CAKI-1; > 100 µM (inactive) in the experiment on HL-60; > 100 µM (inactive) with PC-3; > 100 µM (inactive) in the experiment with SN12C. The GI50 is > 100 µM (inactive) in the experiment on SF-268; > 100 µM (inactive) in the experiment on U-251; 94.4 µM (inactive) with ACHN; > 100 µM (inactive) with SNB-19; > 100 µM (inactive) with NCI-H522; > 100 µM (inactive) with OVCAR-8. Besides, the GI50 in the experiment with SNB-75 and with COLO 205 was > 100 µM (inactive) throughout.
Turning to `COc1cc(C2c3cc4c(cc3OC(NCc3ccccc3)C2C)OCO4)cc(OC)c1OC` (stereo not given), the GI50 in the experiment on SK-OV-3 is 0.476 µM (active); in the experiment with EKVX, 2.56 µM (inactive); with HOP-92, 2 µM (inactive); with UACC-62, 0.409 µM (active); in the experiment on MDA-MB-435, 0.102 µM (active); in the experiment on NCI-H23 it was 0.417 µM (active). Besides, the 50% growth inhibitory concentration (GI50) with Malme-3M was 0.254 µM (active); with HCT-15 it was 0.543 µM; with CAKI-1 it was 0.288 µM (active); with HL-60 it was 0.277 µM (active); in the experiment with PC-3, 0.24 µM (active); in the experiment with SN12C, 0.697 µM (active). Further, the GI50 in the experiment with SF-268 is 0.933 µM (active); in the experiment with U-251, 0.39 µM (active); in the experiment with ACHN, 1.01 µM (active); with SNB-19 it was 0.452 µM (active); in the experiment with NCI-H522 it was 0.339 µM (active); in the experiment with OVCAR-8, 0.482 µM (active). Besides, the GI50 in the experiment on SNB-75 was 0.177 µM (active); with COLO 205, 0.252 µM (active).
For `c1ccc2cc(-c3cc(-c4cc(-c5ccc6ccccc6c5)on4)no3)ccc2c1`, the GI50 was > 100 µM (inactive) in the experiment with SK-OV-3; 11.7 µM (inactive) with EKVX; > 100 µM (inactive) with HOP-92; > 100 µM (inactive) with UACC-62; > 100 µM (inactive) in the experiment with MDA-MB-435; > 100 µM (inactive) in the experiment on NCI-H23. The GI50 was > 100 µM (inactive) with Malme-3M; greater than 100 µM in the experiment with HCT-15; > 100 µM (inactive) in the experiment with CAKI-1; > 100 µM (inactive) in the experiment on HL-60; > 100 µM (inactive) with PC-3; > 100 µM (inactive) in the experiment with SN12C. For the same compound, the GI50 in the experiment with SF-268 is > 100 µM (inactive); with U-251, > 100 µM (inactive); in the experiment with ACHN, > 100 µM (inactive); with SNB-19 it was 15 µM (inactive); in the experiment with NCI-H522, > 100 µM (inactive); in the experiment on OVCAR-8 it was > 100 µM (inactive). For the same compound, the GI50 is 64.7 µM (inactive) with SNB-75 and > 100 µM (inactive) with COLO 205.
Turning to `Cc1nccn1S(=O)(=O)c1ccc(Cl)cc1`, the GI50 in the experiment with SK-OV-3 is 87.5 µM (inactive); in the experiment on EKVX, 31.3 µM (inactive); in the experiment on HOP-92, 16.9 µM (inactive); in the experiment with UACC-62 it was 55.6 µM (inactive); in the experiment with MDA-MB-435 it was 22.7 µM (inactive); in the experiment on NCI-H23, 39.6 µM (inactive). The GI50 with Malme-3M is 34.8 µM (inactive); in the experiment with HCT-15, 41.6 µM; in the experiment with CAKI-1 it was 42 µM (inactive); in the experiment with HL-60, 22.9 µM (inactive); with PC-3 it was 99.8 µM (inactive); in the experiment on SN12C, 37.8 µM (inactive). In addition, the GI50 with SF-268 is 47.9 µM (inactive); with U-251, 61.1 µM (inactive); with ACHN, 95.9 µM (inactive); in the experiment with SNB-19, > 100 µM (inactive); in the experiment with NCI-H522 it was 27.9 µM (inactive); in the experiment on OVCAR-8, 59.2 µM (inactive). Besides, the GI50 in the experiment with SNB-75 is 57 µM (inactive); in the experiment with COLO 205, 19.8 µM (inactive).
As for `CCOC(=O)[C@@]12CCC(C1=O)[C@](C)(O)C[C@@H]2c1ccccc1`, the GI50 with SK-OV-3 is 29.1 µM (inactive); in the experiment with EKVX, 57.1 µM (inactive); with HOP-92 it was 55.1 µM (inactive); in the experiment on UACC-62, 29.7 µM (inactive); in the experiment with MDA-MB-435, 8.07 µM (inactive); in the experiment with NCI-H23, 66.5 µM (inactive). In addition, the GI50 with Malme-3M is 37.6 µM (inactive); in the experiment with HCT-15, 25.8 µM; in the experiment on CAKI-1, 39.2 µM (inactive); in the experiment with HL-60, 24.3 µM (inactive); in the experiment with PC-3, 34 µM (inactive); in the experiment with SN12C, 24.8 µM (inactive). Further, the GI50 was 36.2 µM (inactive) in the experiment with SF-268; 33.7 µM (inactive) in the experiment with U-251; 53.2 µM (inactive) in the experiment with ACHN; 43.7 µM (inactive) with SNB-19; 19 µM (inactive) in the experiment with NCI-H522; 54.8 µM (inactive) in the experiment with OVCAR-8. Also, the GI50 with SNB-75 was 33 µM (inactive); in the experiment with COLO 205, 44.4 µM (inactive).
